Test systems include A549 NSCLC; ACHN renal; COLO 205 colon; HCT-15 colon; HOP-92 NSCLC; HS 578T breast; MALME-3M melanoma; OVCAR-3 ovarian; OVCAR-5 ovarian; OVCAR-8 ovarian; SF-295 CNS; SW-620 colon; T-47D breast; TK-10 renal; U251 CNS; SF-539 CNS.
What all share (test): NCI tumour cell line growth inhibition, 48 h

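Tested at 5 concentrations; 48 h exposure; 96-well plates; endpoints linearly interpolated, else capped at highest concentration. TGI denotes the concentration required for complete inhibition of growth.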

On to `CCOC(=O)/C(C#N)=C/c1ccc2c(-c3c(OCC)ccc4cc(/C=C(\C#N)C(=O)OCC)ccc34)c(OCC)ccc2c1`, for which the TGI in the test with A549 NSCLC, in the test on ACHN renal, with COLO 205 colon, in the test with HCT-15 colon, with HOP-92 NSCLC and with HS 578T breast was greater than 100 µM in each case. Further, the TGI in the test on MALME-3M melanoma, in the test with OVCAR-3 ovarian, in the test on OVCAR-5 ovarian, with OVCAR-8 ovarian, in the test with SF-295 CNS and in the test on SW-620 colon was greater than 100 µM in each case. Further, the TGI in the test on T-47D breast, in the test on TK-10 renal and in the test with U251 CNS was greater than 100 µM in each case.
With `COC(CN(C)C(=O)C(C)NC(=O)c1ccccc1)OC` (stereo unspecified), the TGI with A549 NSCLC, with ACHN renal, with COLO 205 colon, in the test with HCT-15 colon, with HOP-92 NSCLC and in the test with HS 578T breast was greater than 100 µM in each case. In addition, the TGI in the test on MALME-3M melanoma, in the test on OVCAR-5 ovarian, with OVCAR-8 ovarian, in the test with SF-295 CNS, in the test on SF-539 CNS and in the test with SW-620 colon was greater than 100 µM each time. For the same compound, the TGI in the test with T-47D breast, in the test on TK-10 renal and in the test on U251 CNS was greater than 100 µM throughout.
In the case of `O=C(Cn1c(=O)ccn(C2OC(CO)C(O)C2F)c1=O)c1ccc(F)cc1` (stereo unspecified), the TGI in the test on A549 NSCLC, with ACHN renal, with COLO 205 colon, in the test on HCT-15 colon, with HS 578T breast and with MALME-3M melanoma was greater than 100 µM throughout. In addition, the TGI with OVCAR-3 ovarian, with OVCAR-5 ovarian, with OVCAR-8 ovarian, with SF-295 CNS, in the test with SF-539 CNS and in the test on SW-620 colon was greater than 100 µM throughout. For the same compound, the TGI with T-47D breast, in the test on TK-10 renal and in the test with U251 CNS was greater than 100 µM in each case.
In the case of `CCCCCCCCCOC(=O)c1cnc(Cl)cn1`, the TGI in the test on A549 NSCLC was 64.8 µM; with ACHN renal, 33.5 µM; with COLO 205 colon, 51.1 µM; in the test with HCT-15 colon, 32 µM; in the test on HOP-92 NSCLC it was greater than 100 µM; in the test on HS 578T breast, 68 µM. Further, the TGI in the test on MALME-3M melanoma worked out at 39.4 µM; with OVCAR-5 ovarian, 70.8 µM; in the test with OVCAR-8 ovarian it was 69.6 µM; in the test on SF-295 CNS, 34.6 µM; with SF-539 CNS it was 58.1 µM; in the test on SW-620 colon, 32.5 µM. The values for the TGI in the test on T-47D breast, with TK-10 renal and with U251 CNS were 51.2 µM, 43.9 µM and 33.9 µM, respectively.
Turning to `O=C(NN=C1CCN(Cc2ccccc2)CC1)C(O)(c1ccccc1)c1ccccc1`, the TGI with A549 NSCLC, in the test with COLO 205 colon, with HCT-15 colon, in the test with HOP-92 NSCLC, in the test on HS 578T breast and with MALME-3M melanoma was greater than 100 µM in each case. Besides, the TGI with OVCAR-5 ovarian, with OVCAR-8 ovarian, in the test on SF-295 CNS, in the test with SF-539 CNS, in the test on SW-620 colon and with T-47D breast was greater than 100 µM in each case. Moreover, the TGI in the test on TK-10 renal and with U251 CNS was greater than 100 µM throughout.
As to `CCOC(=O)CN1CCNCCN(CC(=O)OCC)CCNCC1`, the TGI in the test on A549 NSCLC, in the test on ACHN renal, in the test on COLO 205 colon, in the test on HCT-15 colon, in the test with HOP-92 NSCLC and in the test with HS 578T breast was greater than 100 µM throughout. In addition, the TGI in the test on OVCAR-3 ovarian, with OVCAR-5 ovarian, with OVCAR-8 ovarian, with SF-295 CNS, with SF-539 CNS and in the test with T-47D breast was greater than 100 µM in each case. For the same compound, the TGI in the test on TK-10 renal and in the test with U251 CNS was greater than 100 µM each time.
`COc1ccc2[nH]c(CCNC(=O)c3cc([N+](=O)[O-])cc([N+](=O)[O-])c3)cc2c1`: the TGI is greater than 100 µM in the test with A549 NSCLC; greater than 100 µM in the test with COLO 205 colon; greater than 100 µM in the test on HCT-15 colon; 93.8 µM in the test on HOP-92 NSCLC; greater than 100 µM in the test with HS 578T breast; greater than 100 µM in the test on MALME-3M melanoma. For the same compound, the TGI is greater than 100 µM in the test with OVCAR-3 ovarian; greater than 100 µM with OVCAR-8 ovarian; greater than 100 µM in the test on SF-539 CNS; greater than 100 µM in the test with SW-620 colon; 90.6 µM in the test with T-47D breast; greater than 100 µM in the test on TK-10 renal. The TGI with U251 CNS was found to be 78.1 µM.
On to `CC/C(=N\NC(=O)c1cccnc1)c1ccc2c(c1)OCCO2`, for which the TGI is greater than 100 µM in the test on A549 NSCLC; greater than 100 µM with ACHN renal; greater than 100 µM in the test with COLO 205 colon; greater than 100 µM with HCT-15 colon; 93.7 µM in the test with HS 578T breast; 91.5 µM in the test with MALME-3M melanoma. For the same compound, the TGI in the test with OVCAR-3 ovarian, in the test with OVCAR-5 ovarian, with OVCAR-8 ovarian, in the test on SF-295 CNS, in the test on SF-539 CNS and in the test on SW-620 colon was greater than 100 µM in each case. Further, the TGI in the test on T-47D breast, with TK-10 renal and in the test on U251 CNS was greater than 100 µM each time.
Regarding `COc1ccc2c(c1)C(N)CC2=O` (stereo unspecified), the TGI with A549 NSCLC is 38.2 µM; in the test on ACHN renal it was greater than 100 µM; with COLO 205 colon it was greater than 100 µM; in the test with HCT-15 colon, greater than 100 µM; with HOP-92 NSCLC, greater than 100 µM; with HS 578T breast, greater than 100 µM. The TGI in the test with OVCAR-3 ovarian, in the test on OVCAR-5 ovarian, in the test on OVCAR-8 ovarian, in the test with SF-295 CNS, in the test with SF-539 CNS and with SW-620 colon was greater than 100 µM each time. For the same compound, the TGI in the test with T-47D breast, with TK-10 renal and in the test on U251 CNS was greater than 100 µM throughout.

The record behind these values is PubChem BioAssay (NCI).
